Legend:
[1] = Impact of ticagrelor particle size on dissolution; type: physicochemical
From the text: Two different particle size diameters for the ticagrelor active ingredient were screened, 5.5 and 15 micrometers. The pH and osmolality were not affected.

[2] = Storage stability in amber glass vials at pH 7, 7.5 and 8, 19 mM buffer; type: physicochemical; settings: for Acetal impurity / Amine impurity / Description / Regiomer / Sum Impurities >0.05 / Total impurity / Triol impurity / pH / Assay: HPβCD 40% w/w; for Assay: in %
Method: To optimize the HPβCD concentration and the pH of the solution for intravenous use, a 12 week/3 months stability study was conducted. […] Its stability was tested at regular intervals.
A comparison of stability profile at 3 different pH—7, 7.5 and 8—was carried out as below, the manufacturing process for all 3 formulations was kept constant with buffer strength at 19 mM.

[3] = 19 mM pH 7 Phosphate Buffer, 1 M
[4] = 19 mM pH 7 Phosphate Buffer, 2 M
[5] = 19 mM pH 7 Phosphate Buffer, 3 M
[6] = 19 mM pH 7 Phosphate Buffer, T0
[7] = 19 mM pH 7.5 Phosphate Buffer, 1 M
[8] = 19 mM pH 7.5 Phosphate Buffer, 2 M
[9] = 19 mM pH 7.5 Phosphate Buffer, 3 M
[10] = 19 mM pH 7.5 Phosphate Buffer, T0
[11] = 19 mM pH 8 Phosphate buffer, 1 M
[12] = 19 mM pH 8 Phosphate buffer, 2 M
[13] = 19 mM pH 8 Phosphate buffer, 3 M
[14] = 19 mM pH 8 Phosphate buffer, T0

CCCSc1nc(N[C@@H]2C[C@H]2c2ccc(F)c(F)c2)c2nnn([C@@H]3C[C@H](OCCO)[C@@H](O)[C@H]3O)c2n1 [Ticagrelor, (1S,2S,3R,5S)-3-{7-[(1R,2S)-2-(3,4-difluorophenyl)cyclopropylamino]5-(propylthio)-3H-(1,2,3)triazolo (4,5-D)pyrimidin-3-yl}-5-(2 hydroxyethoxy)cyclopentane-1,2-diol]
Dissolution time ([1]; D90 5.5 μm, micronized): 33 min
Osmolality ([1]; D90 5.5 μm, micronized): 751 mOsm/kg
pH ([1]; D90 5.5 μm, micronized): 7.68
Dissolution time ([1]; D90 15 μm, unmicronized): 125 min
Osmolality ([1]; D90 15 μm, unmicronized): 753 mOsm/kg
pH ([1]; D90 15 μm, unmicronized): 7.70
Acetal impurity [2, 3]: 0.05%
Amine impurity [2, 3]: 0.04%
Description [2, 3]: clear
Regiomer [2, 3]: 0.03%
Sum Impurities >0.05 [2, 3]: 0.05%
Total impurity [2, 3]: 0.27%
Triol impurity [2, 3]: 0.02%
pH [2, 3]: 7.34
Assay [2, 3]: 99.73
Acetal impurity [2, 4]: 0.05%
Amine impurity [2, 4]: 0.04%
Description [2, 4]: clear
Regiomer [2, 4]: 0.06%
Sum Impurities >0.05 [2, 4]: 0.11%
Total impurity [2, 4]: 0.34%
Triol impurity [2, 4]: 0.04%
pH [2, 4]: 7.34
Assay [2, 4]: 99.81
Acetal impurity [2, 5]: 0.05%
Amine impurity [2, 5]: 0.06%
Description [2, 5]: clear
Regiomer [2, 5]: 0.11%
Sum Impurities >0.05 [2, 5]: 0.22%
Total impurity [2, 5]: 0.40%
Triol impurity [2, 5]: 0.04%
pH [2, 5]: 7.30
Assay [2, 5]: 98.51
Acetal impurity [2, 6]: 0.05%
Amine impurity [2, 6]: 0.04%
Description [2, 6]: clear
Regiomer [2, 6]: 0.00%
Sum Impurities >0.05 [2, 6]: 0.22%
Total impurity [2, 6]: 0.41%
Triol impurity [2, 6]: 0.05%
pH [2, 6]: 7.33
Assay [2, 6]: 98.95
Acetal impurity [2, 7]: 0.05%
Amine impurity [2, 7]: 0.05%
Description [2, 7]: clear
Regiomer [2, 7]: 0.01%
Sum Impurities >0.05 [2, 7]: 0.14%
Total impurity [2, 7]: 0.32%
Triol impurity [2, 7]: 0.05%
pH [2, 7]: 7.50
Assay [2, 7]: 104.47
Acetal impurity [2, 8]: 0.05%
Amine impurity [2, 8]: 0.05%
Description [2, 8]: clear
Regiomer [2, 8]: 0.04%
Sum Impurities >0.05 [2, 8]: 0.15%
Total impurity [2, 8]: 0.29%
Triol impurity [2, 8]: 0.05%
pH [2, 8]: 7.48
Assay [2, 8]: 102.59
Acetal impurity [2, 9]: 0.05%
Amine impurity [2, 9]: 0.05%
Description [2, 9]: clear
Regiomer [2, 9]: 0.08%
Sum Impurities >0.05 [2, 9]: 0.23%
Total impurity [2, 9]: 0.41%
Triol impurity [2, 9]: 0.04%
pH [2, 9]: 7.55
Assay [2, 9]: 102.31
Acetal impurity [2, 10]: 0.05%
Amine impurity [2, 10]: 0.04%
Description [2, 10]: clear
Regiomer [2, 10]: 0.00%
Sum Impurities >0.05 [2, 10]: 0.11%
Total impurity [2, 10]: 0.31%
Triol impurity [2, 10]: 0.04%
pH [2, 10]: 7.40
Assay [2, 10]: 104.27
Acetal impurity [2, 11]: 0.05%
Amine impurity [2, 11]: 0.05%
Description [2, 11]: clear
Regiomer [2, 11]: 0.01%
Sum Impurities >0.05 [2, 11]: 0.09%
Total impurity [2, 11]: 0.26%
Triol impurity [2, 11]: 0.03%
pH [2, 11]: 8.10
Assay [2, 11]: 105.88
Acetal impurity [2, 12]: 0.05%
Amine impurity [2, 12]: 0.05%
Description [2, 12]: clear
Regiomer [2, 12]: 0.03%
Sum Impurities >0.05 [2, 12]: 0.15%
Total impurity [2, 12]: 0.32%
Triol impurity [2, 12]: 0.05%
pH [2, 12]: 8.04
Assay [2, 12]: 105.46
Acetal impurity [2, 13]: 0.05%
Amine impurity [2, 13]: 0.07%
Description [2, 13]: clear
Regiomer [2, 13]: 0.06%
Sum Impurities >0.05 [2, 13]: 0.23%
Total impurity [2, 13]: 0.37%
Triol impurity [2, 13]: 0.05%
pH [2, 13]: 8.03
Assay [2, 13]: 104.46
Acetal impurity [2, 14]: 0.05%
Amine impurity [2, 14]: 0.04%
Description [2, 14]: clear
Regiomer [2, 14]: 0.00%
Sum Impurities >0.05 [2, 14]: 0.25%
Total impurity [2, 14]: 0.43%
Triol impurity [2, 14]: 0.06%
pH [2, 14]: 8.07
Assay [2, 14]: 103.25
Stability of solution in HPβCD ([2]; pH range of 7 to 8): stable
